Patent US12227501B2, “3-amino-2-[2-(acylamino)pyridin-4-yl]-1,5,6,7-tetrahydro-4h-pyrrolo[3,2-c]pyridin-4-one as CSNK1 inhibitors” (Bayer Aktiengesellschaft, priority 2019, dated 2025)
“And” between values parts separate entries of the source, which are not always exact repeats. Equal entries are not always repeated. Where two headings read alike, the source gives them in different places.

Legend:
Assay type in all cases: biochemical
[1] = molecular target: T1, human CSNK1A1 (Homo sapiens (Human), UniProt P48729); assay: CSNK1A1 Assay 2 (ADP-Glo, 1 μM ATP); details: substrate biotin-Ahx-KRRRAL-pS-VASLPGL, read-out: CSNK1A1 Assay 2 IC50 [mol/l] (median)
Outline: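 Full-length human CSNK1A1 as an N-terminal GST fusion (baculovirus/insect cells) with biotinylated peptide substrate biotin-Ahx-KRRRAL-pS-VASLPGL and 1 μM ATP, in HEPES pH 7.5 buffer. Compounds were pre-incubated with enzyme (~0.0375 ng/μL) for 15 min at 22 °C. Generated ADP was read by ADP-Glo luminescence as the activity measure.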

[2] = molecular target: human CSNK1D (Homo sapiens (Human), UniProt P48730); assay: CSNK1D Assay (ADP-Glo, 1 μM ATP); details: read-out: CSNK1D IC50 [mol/l] (median)
Outline: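 Activity is read as ADP produced, by ADP-Glo luminescence after 1 h steps at 22 °C. The reaction uses 1 μM ATP, a biotinylated peptide and insect-cell-expressed GST–CSNK1D (about 0.5 ng/μL) in pH 7.5 HEPES buffer, with 15 min compound–enzyme preincubation.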

[3] = molecular target: wild-type Epidermal Growth Factor Receptor (EGFR) (Homo sapiens (Human), UniProt P00533); assay: WT-EGFR Kinase Assay (TR-FRET, 2 mM ATP)
[4] = molecular target: T1, human CSNK1A1; assay: CSNK1A1 High ATP Assay (ADP-Glo, 1 mM ATP); details: read-out: CSNK1A1 high ATP assay IC50 [mol/l] (median)
Outline: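 Kinase activity taken as ADP generated, quantified by ADP-Glo luminescence after 1 h ATP depletion and 1 h detection at 22 °C. Enzyme is GST–full-length human CSNK1A1 (insect cell-expressed), pre-bound to compound for 15 min, with phosphopeptide substrate and 1 mM ATP.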

[5] = EGFR Wildtyp- 2 mM ATP IC50 [mol/l] (median)
[6] = read-out: EGFR Wildtyp- 2 mM ATP IC50 [mol/l] (median)

T1 sequence (P48729 whole entry, the tested form may be a part): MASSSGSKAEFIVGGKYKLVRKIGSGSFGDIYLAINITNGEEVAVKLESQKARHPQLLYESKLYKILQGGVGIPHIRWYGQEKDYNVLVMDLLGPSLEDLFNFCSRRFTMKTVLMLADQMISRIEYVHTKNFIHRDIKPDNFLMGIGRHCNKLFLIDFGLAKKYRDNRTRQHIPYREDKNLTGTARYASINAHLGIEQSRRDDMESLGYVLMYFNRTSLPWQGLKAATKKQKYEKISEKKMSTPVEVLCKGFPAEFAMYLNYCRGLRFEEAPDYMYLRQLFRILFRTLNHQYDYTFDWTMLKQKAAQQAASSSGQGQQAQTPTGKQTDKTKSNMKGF
Chain of wild-type Epidermal Growth Factor Receptor (EGFR) (P00533 669-1210): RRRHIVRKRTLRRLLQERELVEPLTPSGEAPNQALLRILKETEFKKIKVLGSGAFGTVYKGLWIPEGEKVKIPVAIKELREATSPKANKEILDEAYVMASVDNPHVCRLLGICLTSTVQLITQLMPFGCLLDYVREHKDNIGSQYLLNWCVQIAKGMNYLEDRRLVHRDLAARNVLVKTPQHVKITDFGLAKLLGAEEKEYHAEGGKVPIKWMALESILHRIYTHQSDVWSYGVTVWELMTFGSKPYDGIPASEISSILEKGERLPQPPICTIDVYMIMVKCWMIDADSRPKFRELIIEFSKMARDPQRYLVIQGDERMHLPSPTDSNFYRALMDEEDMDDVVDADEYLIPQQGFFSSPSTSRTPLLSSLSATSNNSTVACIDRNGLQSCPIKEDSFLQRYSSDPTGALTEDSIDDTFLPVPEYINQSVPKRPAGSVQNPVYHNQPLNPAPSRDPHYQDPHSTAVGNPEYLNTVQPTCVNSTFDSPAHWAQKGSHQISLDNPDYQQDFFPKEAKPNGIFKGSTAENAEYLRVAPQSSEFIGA
Chain of human CSNK1D (P48730 whole entry): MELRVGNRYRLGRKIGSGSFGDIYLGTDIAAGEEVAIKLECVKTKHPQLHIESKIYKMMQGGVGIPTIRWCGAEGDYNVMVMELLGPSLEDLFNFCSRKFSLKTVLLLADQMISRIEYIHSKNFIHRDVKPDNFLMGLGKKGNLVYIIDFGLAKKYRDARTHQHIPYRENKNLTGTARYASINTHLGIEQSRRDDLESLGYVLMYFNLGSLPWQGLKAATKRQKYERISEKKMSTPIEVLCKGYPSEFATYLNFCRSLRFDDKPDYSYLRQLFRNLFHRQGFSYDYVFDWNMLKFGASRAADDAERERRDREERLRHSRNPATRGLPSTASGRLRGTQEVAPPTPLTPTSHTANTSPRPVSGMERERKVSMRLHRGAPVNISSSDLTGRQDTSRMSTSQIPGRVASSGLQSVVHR

Row | Structure (SMILES) | IC50 [1] [nM] | IC50 [2] [nM] | IC50 [3, 5] [nM] | IC50 [4] | IC50 [3, 6] [nM]
1 | CC1(C)Cc2[nH]c(-c3ccnc(NC(=O)C(CC(F)F)c4ccc(F)cc4)c3)c(Nc3cccc(F)n3)c2C(=O)N1 (single isomer, unassigned; enantiomer 1) [Example 129, 4,4-difluoro-2-(4-fluorophenyl)-N-(4-{3-[(6-fluoropyridin-2-yl)amino]-6,6-dimethyl-4-oxo-4,5,6,7-tetrahydro-1H-pyrrolo[3,2-c]pyridin-2-yl}pyridin-2-yl)butanamide (Enantiomer 1)] | 3.39 | 5.4 | > 20000 | 6.37 nM | –
2 | CN1C(=O)c2c([nH]c(-c3ccnc(NC(=O)C(CC(F)F)c4ccc(F)cc4)c3)c2Nc2ccccc2F)CC1(C)C (racemic) [Example 45, 4,4-difluoro-N-{4-[3-(2-fluoroanilino)-5,6,6-trimethyl-4-oxo-4,5,6,7-tetrahydro-1H-pyrrolo[3,2-c]pyridin-2-yl]pyridin-2-yl}-2-(4-fluorophenyl)butanamide] | 16.3 | 13.2 | > 20000 | 273 nM | –
3 | COCCN1CCc2[nH]c(-c3ccnc(NC(=O)Cc4ccc(F)cc4)c3)c(Nc3ccccc3)c2C1=O [Example 53, N-{4-[3-anilino-5-(2-methoxyethyl)-4-oxo-4,5,6,7-tetrahydro-1H-pyrrolo[3,2-c]pyridin-2-yl]pyridin-2-yl}-2-(4-fluorophenyl)acetamide] | 9.68 | 15 | – | 907 nM | 6030
4 | O=C(Cc1ccc(F)cc1)Nc1cc(-c2[nH]c3c(c2Nc2ccccc2)C(=O)N(C2CC2)CC3)ccn1 [Example 7, N-[4-(3-anilino-5-cyclopropyl-4-oxo-4,5,6,7-tetrahydro-1H-pyrrolo[3,2-c]pyridin-2-yl)pyridin-2-yl]-2-(4-fluorophenyl)acetamide] | 2.52 | 8.48 | – | 107 nM | 2740
5 | CC(C(=O)Nc1cc(-c2[nH]c3c(c2Nc2ccccc2Cl)C(=O)NCC3)ccn1)c1ccc(F)cc1 (single isomer, unassigned) [Example 15, N-{4-[3-(2-chloroanilino)-4-oxo-4,5,6,7-tetrahydro-1H-pyrrolo[3,2-c]pyridin-2-yl]pyridin-2-yl}-2-(4-fluorophenyl)propanamide] | 42.5 | 38.6 | > 20000 | 10700 nM and > 5710 nM | –
6 | CC(C(=O)Nc1cc(-c2[nH]c3c(c2Nc2ccccc2)C(=O)N(C)C(C)C3)ccn1)c1ccc(F)cc1 (single isomer, unassigned; (+)) [Example 96, (+)-N-{4-[3-anilino-5,6-dimethyl-4-oxo-4,5,6,7-tetrahydro-1H-pyrrolo[3,2-c]pyridin-2-yl]pyridin-2-yl}-2-(4-fluorophenyl)propanamide] | 5.37 | 4.36 | 7040 | 35.8 nM | –
7 | O=C1NC2(CCC2)Cc2[nH]c(-c3ccnc(NC(=O)C(CC(F)F)c4ccc(F)cc4)c3)c(Nc3cccc(F)c3Cl)c21 (racemic) [Example 123, N-{4-[3′-(2-chloro-3-fluoroanilino)-4′-oxo-1′,4′,5′,7′-tetrahydrospiro[cyclobutane-1,6′-pyrrolo[3,2-c]pyridin]-2′-yl]pyridin-2-yl}-4,4-difluoro-2-(4-fluorophenyl)butanamide (Racemate)] | 13.5 | 9.91 | 56.4 | 29.1 nM | –
8 | CC(C(=O)Nc1cc(-c2[nH]c3c(c2Nc2ccccc2)C(=O)N(C)C(C)C3)ccn1)c1ccc(F)cc1 (single isomer, unassigned; (-)) [Example 95, (−)-N-{4-[3-anilino-5,6-dimethyl-4-oxo-4,5,6,7-tetrahydro-1H-pyrrolo[3,2-c]pyridin-2-yl]pyridin-2-yl}-2-(4-fluorophenyl)propanamide] | 46.2 | 45.3 | 6310 | 2460 nM | –
9 | CC1(C)Cc2[nH]c(-c3ccnc(NC(=O)C(CC(F)F)c4ccc(F)cc4)c3)c(Nc3cccc(F)c3Cl)c2C(=O)N1 (single isomer, unassigned; (-)) [Example 110, (−)-N-{4-[3-(2-chloro-3-fluoroanilino)-6,6-dimethyl-4-oxo-4,5,6,7-tetrahydro-1H-pyrrolo[3,2-c]pyridin-2-yl]pyridin-2-yl}-4,4-difluoro-2-(4-fluorophenyl)butanamide] | 262 | 249 | 4130 | > 20000 nM | –
10 | CC1Cc2[nH]c(-c3ccnc(NC(=O)C(CC(F)F)c4ccc(F)cc4)c3)c(Nc3ccccc3F)c2C(=O)N1C (single isomer, unassigned; (-)) [Example 104, (−)-4,4-difluoro-N-{4-[3-(2-fluoroanilino)-5,6-dimethyl-4-oxo-4,5,6,7-tetrahydro-1H-pyrrolo[3,2-c]pyridin-2-yl]pyridin-2-yl}-2-(4-fluorophenyl)butanamide] | 67.9 | 60.5 | – | 4490 nM | > 20000
11 | CN1CCc2[nH]c(-c3ccnc(NC(=O)C(CC(F)F)c4ccc(F)cc4)c3)c(Nc3ccccc3)c2C1=O (racemic) [Example 61, N-[4-(3-anilino-5-methyl-4-oxo-4,5,6,7-tetrahydro-1H-pyrrolo[3,2-c]pyridin-2-yl)pyridin-2-yl]-4,4-difluoro-2-(4-fluorophenyl)butanamide] | 5.11 | 7.68 | 8020 | 21.9 nM | –
12 | CC(C(=O)Nc1cc(-c2[nH]c3c(c2Nc2ccccc2)C(=O)N(C)C(C)C3)ccn1)c1ccc(F)cc1 (single isomer, unassigned; (-)) [Example 94, (−)-(2RS)—N-{4-[(6R*)-3-anilino-5,6-dimethyl-4-oxo-4,5,6,7-tetrahydro-1H-pyrrolo[3,2-c]pyridin-2-yl]pyridin-2-yl}-2-(4-fluorophenyl)propanamide] | 4.33 | 7.02 | 4410 | 154 nM | –
13 | CC1(C)Cc2[nH]c(-c3ccnc(NC(=O)Cc4ccc(F)cc4)c3)c(Nc3cccc(F)c3Cl)c2C(=O)N1 [Example 112, N-{4-[3-(2-chloro-3-fluoroanilino)-6,6-dimethyl-4-oxo-4,5,6,7-tetrahydro-1H-pyrrolo[3,2-c]pyridin-2-yl]pyridin-2-yl}-2-(4-fluorophenyl)acetamide] | 6.69 | 8.41 | – | 167 nM | 3430
14 | CN1CCc2[nH]c(-c3ccnc(NC(=O)Cc4ccc(C(F)F)cc4)c3)c(Nc3ccccc3)c2C1=O [Example 78, N-[4-(3-anilino-5-methyl-4-oxo-4,5,6,7-tetrahydro-1H-pyrrolo[3,2-c]pyridin-2-yl)pyridin-2-yl]-2-[4-(difluoromethyl)phenyl]acetamide] | 2.95 | 7.93 | – | 95.5 nM | 3090
15 | CCC(C(=O)Nc1cc(-c2[nH]c3c(c2Nc2ccccc2)C(=O)N(C)CC3)ccn1)c1ccc(F)cc1 (racemic) [Example 75, N-[4-(3-anilino-5-methyl-4-oxo-4,5,6,7-tetrahydro-1H-pyrrolo[3,2-c]pyridin-2-yl)pyridin-2-yl]-2-(4-fluorophenyl)butanamide] | 5.49 | 8.28 | > 20000 | 164 nM | –
16 | CC(C(=O)Nc1cc(-c2[nH]c3c(c2Nc2ccccc2)C(=O)N(C)C2(CCC2)C3)ccn1)c1ccc(F)cc1 (single isomer, unassigned; enantiomer 2) [Example 159, (+)-N-[4-(3′-anilino-5′-methyl-4′-oxo-1′,4′,5′,7′-tetrahydrospiro[cyclobutane-1,6′-pyrrolo[3,2-c]pyridin]-2′-yl)pyridin-2-yl]-2-(4-fluorophenyl)propanamide (Enantiomer 2)] | 90.3 | 90.7 | – | 217 nM | > 20000
17 | Cc1ccccc1Nc1c(-c2ccnc(NC(=O)C(CC(F)F)c3ccc(F)cc3)c2)[nH]c2c1C(=O)NC(C)(C)C2 (racemic) [Example 135, N-{4-[6,6-dimethyl-3-(2-methylanilino)-4-oxo-4,5,6,7-tetrahydro-1H-pyrrolo[3,2-c]pyridin-2-yl]pyridin-2-yl}-4,4-difluoro-2-(4-fluorophenyl)butanamide (Racemate)] | 25.8 | 19.9 | > 20000 | 365 nM | –
